From PMC6152416, “Pharmacological and Toxicological Screening of Novel Benzimidazole-Morpholine Derivatives as Dual-Acting Inhibitors” (Molecules : A Journal of Synthetic Chemistry and Natural …, 2017)
“Also recorded” adds a separate entry of the source. Marks after values point to notes of the source that are not given here.

Key:
COX-2 = biological target: T1, COX-2 (Homo sapiens, UniProt P35354); experiment: Fluorimetric COX-2 inhibition screening kit (BioVision); format: biochemical
T1 construct: purchased BioVision (Milpitas, CA, USA) K547-100
T1 sequence (P35354 18-604): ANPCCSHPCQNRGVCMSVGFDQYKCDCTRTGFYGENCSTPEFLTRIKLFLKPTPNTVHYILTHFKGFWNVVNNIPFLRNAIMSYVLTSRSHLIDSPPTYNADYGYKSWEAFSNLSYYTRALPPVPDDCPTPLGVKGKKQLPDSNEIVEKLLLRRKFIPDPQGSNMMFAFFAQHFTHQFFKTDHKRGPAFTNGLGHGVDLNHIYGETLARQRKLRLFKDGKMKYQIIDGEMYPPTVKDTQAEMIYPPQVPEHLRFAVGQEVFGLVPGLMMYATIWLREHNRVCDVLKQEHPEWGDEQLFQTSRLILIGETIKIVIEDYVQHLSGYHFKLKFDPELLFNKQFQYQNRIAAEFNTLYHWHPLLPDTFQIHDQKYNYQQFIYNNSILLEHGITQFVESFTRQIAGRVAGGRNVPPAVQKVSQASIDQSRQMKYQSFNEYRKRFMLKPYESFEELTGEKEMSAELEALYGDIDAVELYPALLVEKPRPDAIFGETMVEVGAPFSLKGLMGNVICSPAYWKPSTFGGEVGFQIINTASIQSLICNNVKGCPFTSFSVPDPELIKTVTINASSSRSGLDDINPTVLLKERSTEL
Summary of the method: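 Kit-based fluorimetric assay with human COX-2 or ovine COX-1, read kinetically at 25 °C for 5–10 min (ex 535 nm, em 587 nm). Slope from two points in the linear range; % inhibition relative to enzyme control slope, IC50 by regression of activity against concentration.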

MTT cytotoxicity assay = format: cell-based, mouse; details: mouse, NIH/3T3 mouse embryonic fibroblast cells, read-out: Cytotoxicity NIH3T3 Cells IC50
Method: (§1) Cytotoxicity was tested using NIH/3T3 mouse embryonic fibroblast cell line (ATCC® CRL-1658™, London, UK). NIH/3T3 cells were incubated according to the supplier’s recommendations. NIH/3T3 cells were seeded as 1 × 10^4 cells into each well of 96-well plates. MTT assay was performed as previously described. The compounds were tested between 1 mM and 0.000316 mM concentrations (1.0, 0.316, 0.10, 0.0316, 0.01, 0.00316, 0.001, 0.000316 mM). The IC50 values were determined by plotting a dose-response curve of inhibition % versus tested concentrations of the compound [62].

[1] = system: NIH/3T3 mouse embryonic fibroblast cell line; experiment: MTT cytotoxicity assay; format: cell-based; details: NIH/3T3
Method: as §1

[2] = system: Salmonella typhimurium TA98; experiment: Ames MPF genotoxicity assay; format: cell-based
Method: (§2) The genotoxicity of selected compounds (2b, 2j, 2m) was determined by Ames assay using Ames MPF 98/100 mutagenicity assay sample kit (Xenometrix AG, Allschwil, Switzerland) as previously described elsewhere. Salmonella typhimurium strains, TA98 (frameshift mutations) and TA100 (base-pair substitutions) were used in the assay. The concentration of the compounds was between 16 and 5000 μg/mL, in accordance with the guideline. Compounds were prepared in six different concentrations (5.0, 2.5, 1.25, 0.625, 0.3125, 0.156 mg/mL) in DMSO. Mutagenic potential was determined in the absence or presence of Aroclor™-1254 induced male Sprague–Dawley rat liver microsomal enzyme (S9) mix (Xenometrix AG). Positive controls without S9 mix were 2-nitrofluorene (2.0 μg/mL) and 4-nitroquinoline N-oxide (0.1 μg/mL), whereas 1.0 μg/mL and 2.5 μg/mL of 2-aminoanthracene solutions were used as positive controls with S9 against TA98 and TA100, respectively. Solvent control was prepared with 4% DMSO. The end of an experiment was determined by the change of the indicator medium colour to yellow, which was originating from the decrease of pH due to revertant bacteria. Yellow wells were counted as positive, and compared with the negative control. Fold induction over the negative control and fold induction over the baseline were calculated (Fold induction over the negative control is accepted as the ratio of the mean number of positive wells for the dose concentration divided by the mean number of positive wells for the zero dose (negative) control. Fold induction over the baseline is accepted as the ratio of the mean number of positive wells for the dose concentration divided by zero dose baseline. The zero-dose baseline is obtained by adding one standard deviation to the mean number of positive wells of the zero dose control. If the baseline is less than 1, the value is set to 1 for calculation).
(§3) Mutagenicity was determined according to the criteria reported previously. For a baseline value of ≤3, significant increases between 2 and 3-fold of the baseline were classified as weak mutagen, and increases ≥3-fold of the baseline were classified as mutagen. […] As a rule, at least two adjacent doses with significant increases or a significant increase at the highest dose level should be observed for a mutagenic compound. All of the doses were compared according to Student’s t-test at p < 0.05 for statistical significance.

[3] = system: Salmonella typhimurium TA100; experiment: Ames MPF genotoxicity assay; format: cell-based
Method: as §2, §3

FC(F)(F)Oc1ccc(-c2nc3ccccc3n2CCN2CCOCC2)cc1 [Compound 2m, 2-(4-Trifluoromethoxyphenyl)-1-[2-(morpholin-4-yl)ethyl]-1H-benzimidazole]
IC50 (COX-2): 22.7 µM
COX-2 Inhibition (%) (COX-2; 10^-3 M): 64.22%
COX-2 Inhibition (%) (COX-2; 10^-4 M): 59.67%
COX-2 inhibition at the initial concentrations (COX-2; 10^−3 M and 10^−4 M): more than 50%
inhibition at 10 µM (COX-2; 10^−5 M): 46.1 ± 1.13%
inhibition at 0.1 µM (COX-2; 10^−7 M): 34.5 ± 0.97%
inhibition at 0.01 µM (COX-2; 10^−8 M): 28.7 ± 0.83%
inhibition at 0.001 µM (COX-2; 10^−9 M): 22.3 ± 0.52%
inhibition at 1 µM (COX-2; read-out: COX 2 Inhibition %): 41.2 ± 1.05%
IC50 (MTT cytotoxicity assay): 100 µM
cytotoxicity in words [1]: non-cytotoxic
REVERTANTS Fold Increase (over Baseline) ([2]; TA98, S9+, 0.156 mg/mL): 0.46
REVERTANTS Fold Increase (over Baseline) ([2]; TA98, S9+, 0.3125 mg/mL): 0.62
REVERTANTS Fold Increase (over Baseline) ([2]; TA98, S9+, 0.625 mg/mL): 0.77
REVERTANTS Fold Increase (over Baseline) ([2]; TA98, S9+, 1.25 mg/mL): 0.46
REVERTANTS Fold Increase (over Baseline) ([2]; TA98, S9+, 2.5 mg/mL): 1.23
REVERTANTS Fold Increase (over Baseline) ([2]; TA98, S9+, 5 mg/mL): 0.31
REVERTANTS Fold Increase (over Baseline) ([2]; TA98, S9−, 0.156 mg/mL): 0.95
REVERTANTS Fold Increase (over Baseline) ([2]; TA98, S9−, 0.3125 mg/mL): 0.70
REVERTANTS Fold Increase (over Baseline) ([2]; TA98, S9−, 0.625 mg/mL): 0.57
REVERTANTS Fold Increase (over Baseline) ([2]; TA98, S9−, 1.25 mg/mL): 1.08 *
REVERTANTS Fold Increase (over Baseline) ([2]; TA98, S9−, 2.5 mg/mL): 0.82
REVERTANTS Fold Increase (over Baseline) ([2]; TA98, S9−, 5 mg/mL): 1.08 *
Ames MPF mutagenicity classification ([2]; TA98, in the presence/absence of metabolic activation (S9)): non-genotoxic; also recorded: non-mutagenic
REVERTANTS Fold Increase (over Baseline) ([3]; TA100, S9+, 0.156 mg/mL): 0.10
REVERTANTS Fold Increase (over Baseline) ([3]; TA100, S9+, 0.3125 mg/mL): 0.10
REVERTANTS Fold Increase (over Baseline) ([3]; TA100, S9+, 0.625 mg/mL): 0.88
REVERTANTS Fold Increase (over Baseline) ([3]; TA100, S9+, 1.25 mg/mL): 0.19
REVERTANTS Fold Increase (over Baseline) ([3]; TA100, S9+, 2.5 mg/mL): 0.49
REVERTANTS Fold Increase (over Baseline) ([3]; TA100, S9+, 5 mg/mL): 0.29
REVERTANTS Fold Increase (over Baseline) ([3]; TA100, S9−, 0.156 mg/mL): 0.61
REVERTANTS Fold Increase (over Baseline) ([3]; TA100, S9−, 0.3125 mg/mL): 0.88
REVERTANTS Fold Increase (over Baseline) ([3]; TA100, S9−, 0.625 mg/mL): 0.47
REVERTANTS Fold Increase (over Baseline) ([3]; TA100, S9−, 1.25 mg/mL): 0.47
REVERTANTS Fold Increase (over Baseline) ([3]; TA100, S9−, 2.5 mg/mL): 0.54
REVERTANTS Fold Increase (over Baseline) ([3]; TA100, S9−, 5 mg/mL): 0.61
Ames MPF mutagenicity classification ([3]; TA100, with/without metabolic activation (S9)): non-genotoxic; also recorded: non-mutagenic
